36 compounds from patent US12129237B2, “Substituted diaminocarboxamide and diaminocarbonitrile pyrimidines, compositions thereof, and methods of treatment therewith” (SIGNAL PHARMACEUTICALS, LLC, priority 2011, dated 2024) can be followed below.

The IC50 is the midpoint of a concentration-inhibition curve.

T1 sequence (P45983 whole entry): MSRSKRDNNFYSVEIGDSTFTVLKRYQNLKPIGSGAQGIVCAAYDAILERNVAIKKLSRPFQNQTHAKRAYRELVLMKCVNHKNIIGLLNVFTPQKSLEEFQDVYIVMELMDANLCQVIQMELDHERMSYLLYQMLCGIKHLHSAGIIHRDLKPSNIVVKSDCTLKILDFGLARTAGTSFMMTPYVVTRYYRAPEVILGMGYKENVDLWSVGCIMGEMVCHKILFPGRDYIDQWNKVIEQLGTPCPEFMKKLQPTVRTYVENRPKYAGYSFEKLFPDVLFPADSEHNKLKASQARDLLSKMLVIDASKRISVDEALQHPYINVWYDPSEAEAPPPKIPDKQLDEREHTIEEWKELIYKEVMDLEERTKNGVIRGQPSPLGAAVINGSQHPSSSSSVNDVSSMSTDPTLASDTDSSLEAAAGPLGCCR

This assay concerns the target T1, JNK1 (Homo sapiens, UniProt P45983).
T1 construct: purchased Carna Biosciences
The assay is described as follows: JNK1 biochemical assays (one or more of: time resolved fluorescence, Z'-LYTE Cascade, radioactive). The note with it: one or more of the JNK1 biochemical assays; read-out: Act. Level (JNK1 IC50 activity level).
For `CC(C)(C)Nc1nc(N[C@H]2CC[C@H](OC(F)F)CC2)ncc1C(N)=O` [Example 319, 4-(tert-butylamino)-2-((1r,4r)-4-(difluoromethoxy)cyclohexylamino)pyrimidine-5-carboxamide], the IC50 was under 200 nM. With `C[C@]1(O)CCCC(Nc2nc(NC34CCC(F)(CC3)CC4)ncc2C(N)=O)C1` (stereo partly drawn) [Example 321, 2-(4-fluorobicyclo[2.2.2]octan-1-ylamino)-4-((3S)-3-hydroxy-3-methylcyclohexylamino)pyrimidine-5-carboxamide] the figure was under 200 nM. Turning to `CC1(Nc2nc(N[C@H]3CC[C@H](O)CC3)ncc2C(N)=O)CCCC1` [Example 322, 2-((1r,4r)-4-hydroxycyclohexylamino)-4-(1-methylcyclopentylamino)pyrimidine-5-carboxamide], the IC50 was under 200 nM. As for `CC(C)(C)Nc1ncc(C(N)=O)c(N[C@H]2CCC(C)(C)[C@@H](O)C2)n1` [Example 323, 2-(tert-butylamino)-4-((1S,3S)-3-hydroxy-4,4-dimethylcyclohexylamino)pyrimidine-5-carboxamide], the IC50 fell in the range of 200 to 800 nM. To `CC(C)(C)Nc1ncc(C(N)=O)c(N[C@@H]2CCC(C)(C)[C@H](O)C2)n1` [Example 324, 2-(tert-butylamino)-4-((1R,3R)-3-hydroxy-4,4-dimethylcyclohexylamino)pyrimidine-5-carboxamide] belongs under 200 nM. With `C[C@H]1C[C@H](Nc2nc(N[C@H]3CC[C@H](O)CC3)ncc2C(N)=O)C1` [Example 325, 2-((1r,4r)-4-hydroxycyclohexylamino)-4-((1r,3r)-3-methylcyclobutylamino)pyrimidine-5-carboxamide], the IC50 is under 200 nM. Take `CCO[C@H]1CC[C@H](Nc2ncc(C(N)=O)c(N[C@H]3C[C@@H](C)C3)n2)CC1` [Example 326, 2-((1r,4r)-4-ethoxycyclohexylamino)-4-((1s,3s)-3-methylcyclobutylamino)pyrimidine-5-carboxamide]: the IC50 was under 200 nM.

Turning to `C[C@H]1C[C@@H](Nc2nc(N[C@H]3CC[C@H](O)CC3)ncc2C(N)=O)C1` [Example 327, 2-((1r,4r)-4-hydroxycyclohexylamino)-4-((1s,3s)-3-methylcyclobutylamino)pyrimidine-5-carboxamide], the concentration for half-maximal inhibition (IC50) was under 200 nM.

As to `NC(=O)c1cnc(NC2CCOCC2)nc1N[C@@H]1CCC[C@H]1CO` [Example 328, 4-((1R,2R)-2-(hydroxymethyl)cyclopentylamino)-2-(tetrahydro-2H-pyran-4-ylamino)pyrimidine-5-carboxamide], the 50% inhibitory concentration (IC50) is under 200 nM. Regarding `NC(=O)c1cnc(N[C@H]2CC[C@H](OC(F)F)CC2)nc1N[C@@H]1CCC[C@H]1CO` [Example 329, 2-((1r,4R)-4-(difluoromethoxy)cyclohexylamino)-4-((1R,2R)-2-(hydroxymethyl)cyclopentylamino)pyrimidine-5-carboxamide], the IC50 is under 200 nM. To `CC(C)(C)Nc1ncc(C(N)=O)c(N[C@@H]2CCC[C@H]2CO)n1` [Example 330, 2-(tert-butylamino)-4-((1R,2R)-2-(hydroxymethyl)cyclopentylamino)pyrimidine-5-carboxamide] belongs under 200 nM; to `NC(=O)c1cnc(N[C@H]2CC[C@H](OCC(F)(F)F)CC2)nc1N[C@@H]1CCC[C@H]1CO` [Example 331, 4-((1R,2R)-2-(hydroxymethyl)cyclopentylamino)-2-((1r,4R)-4-(2,2,2-trifluoroethoxy)cyclohexylamino)pyrimidine-5-carboxamide], under 200 nM; to `CCO[C@H]1CC[C@H](Nc2ncc(C(N)=O)c(NC(C)(C)C(C)(C)C)n2)CC1` [Example 332, 2-((1r,4r)-4-ethoxycyclohexylamino)-4-(2,3,3-trimethylbutan-2-ylamino)pyrimidine-5-carboxamide], under 200 nM.

Take `CO[C@H]1CC[C@H](Nc2ncc(C(N)=O)c(NC(C)(C)C(C)(C)C)n2)CC1` [Example 333, 2-((1r,4r)-4-methoxycyclohexylamino)-4-(2,3,3-trimethylbutan-2-ylamino)pyrimidine-5-carboxamide]: the IC50 was under 200 nM. As to `CC(C)(C)C(C)(C)Nc1nc(N[C@H]2CC[C@H](O)CC2)ncc1C(N)=O` [Example 334, 2-((1r,4r)-4-hydroxycyclohexylamino)-4-(2,3,3-trimethylbutan-2-ylamino)pyrimidine-5-carboxamide], the half-maximal inhibitory concentration (IC50) was under 200 nM. With `NC(=O)c1cnc(NC23CCC(F)(CC2)CC3)nc1N[C@@H]1CCCC[C@H](O)C1` [Example 335, 2-(4-fluorobicyclo[2.2.2]octan-1-ylamino)-4-((1R,3S)-3-hydroxycycloheptylamino)pyrimidine-5-carboxamide] the figure was under 200 nM; with `CO[C@H]1CC[C@H](Nc2ncc(C(N)=O)c(N[C@H]3C[C@H](C)C3)n2)CC1` [Example 336, 2-((1r,4r)-4-methoxycyclohexylamino)-4-((1r,3r)-3-methylcyclobutylamino)pyrimidine-5-carboxamide], under 200 nM; with `CO[C@H]1CC[C@H](Nc2ncc(C(N)=O)c(N[C@H]3C[C@@H](C)C3)n2)CC1` [Example 337, 2-((1r,4r)-4-methoxycyclohexylamino)-4-((1s,3s)-3-methycyclobutylamino)pyrimidine-5-carboxamide], under 200 nM.

Regarding `CC(C)Nc1ncc(C(N)=O)c(N[C@@H]2CCC[C@](C)(O)C2)n1` [Example 338, 4-((1R,3S)-3-hydroxy-3-methylcyclohexylamino)-2-(isopropylamino)pyrimidine-5-carboxamide], the IC50 is under 200 nM. To `NC(=O)c1cnc(NC2CCC2)nc1N[C@@H]1CCCC[C@H](O)C1` [Example 339, 2-(cyclobutylamino)-4-((1R,3S)-3-hydroxycycloheptylamino)pyrimidine-5-carboxamide] belongs under 200 nM; to `C[C@]1(O)CCC[C@@H](Nc2nc(NC3CCC3)ncc2C(N)=O)C1` [Example 340, 2-(cyclobutylamino)-4-((1R,3S)-3-hydroxy-3-methylcyclohexylamino)pyrimidine-5-carboxamide], under 200 nM; to `NC(=O)c1cnc(NC2CCC2)nc1N[C@@H]1CCC[C@H](O)C1` [Example 341, 2-(cyclobutylamino)-4-((1R,3S)-3-hydroxycyclohexylamino)pyrimidine-5-carboxamide], under 200 nM. `CC1(C)CCC(Nc2nc(NC(C)(C)C)ncc2C(N)=O)C(O)C1` (stereo not drawn) [Example 342, 2-(tert-butylamino)-4-(2-hydroxy-4,4-dimethylcyclohexylamino)pyrimidine-5-carboxamide]: the IC50 was in the range of 200 to 800 nM.

`CC1(C)CCC(Nc2nc(NC(C)(C)C)ncc2C(N)=O)C(O)C1` (stereo not drawn) [Example 343, 2-(tert-butylamino)-4-(2-hydroxy-4,4-dimethylcyclohexylamino)pyrimidine-5-carboxamide]: the IC50 was under 200 nM. In the case of `CCO[C@H]1CC[C@H](Nc2ncc(C(N)=O)c(NC34CC(C3)C4)n2)CC1` [Example 344, 4-(bicyclo[1.1.1]pentan-1-ylamino)-2-((1r,4r)-4-ethoxycyclohexylamino)pyrimidine-5-carboxamide], the IC50 is under 200 nM. Turning to `CCC(C)(CC)Nc1ncc(C(N)=O)c(N[C@@H]2CC[C@@H](C)[C@H](O)C2)n1` [Example 345, 4-((1R,3R,4R)-3-hydroxy-4-methylcyclohexylamino)-2-(3-methylpentan-3-ylamino)pyrimidine-5-carboxamide], the IC50 was under 200 nM.

Turning to `NC(=O)c1cnc(NC23CC(C2)C3)nc1N[C@@H]1CCCC[C@H](O)C1` [Example 346, 2-(bicyclo[1.1.1]pentan-1-ylamino)-4-((1R,3S)-3-hydroxycycloheptylamino)pyrimidine-5-carboxamide], the half-inhibitory concentration (IC50) is under 200 nM. Turning to `C[C@]1(O)CCC[C@@H](Nc2nc(NC34CC(C3)C4)ncc2C(N)=O)C1` [Example 347, 2-(bicyclo[1.1.1]pentan-1-ylamino)-4-((1R,3S)-3-hydroxy-3-methylcyclohexylamino)pyrimidine-5-carboxamide], the half-inhibitory concentration (IC50) is under 200 nM. For `CCC(C)(C)Nc1ncc(C(N)=O)c(N[C@@H]2CCCC[C@H](O)C2)n1` [Example 349, 4-((1R,3S)-3-hydroxycycloheptylamino)-2-(tert-pentylamino)pyrimidine-5-carboxamide], the 50% inhibitory concentration (IC50) is under 200 nM. For the compound `CCC(C)(C)Nc1ncc(C(N)=O)c(N[C@@H]2CCC[C@](C)(O)C2)n1` [Example 350, 4-((1R,3S)-3-hydroxy-3-methylcyclohexylamino)-2-(tert-pentylamino)pyrimidine-5-carboxamide], the IC50 was under 200 nM. To `CCC(C)(C)Nc1ncc(C(N)=O)c(N[C@@H]2CCC[C@H](O)C2)n1` [Example 351, 4-((1R,3S)-3-hydroxycyclohexylamino)-2-(tert-pentylamino)pyrimidine-5-carboxamide] belongs under 200 nM; to `CC1(Nc2ncc(C(N)=O)c(N[C@@H]3CCCC[C@H](O)C3)n2)CCC1` [Example 352, 4-((1R,3S)-3-hydroxycycloheptylamino)-2-(1-methylcyclobutylamino)pyrimidine-5-carboxamide], under 200 nM.

Take `CC1(Nc2ncc(C(N)=O)c(N[C@@H]3CCC[C@](C)(O)C3)n2)CCC1` [Example 353, 4-((1R,3S)-3-hydroxy-3-methylcyclohexylamino)-2-(1-methylcyclobutylamino)pyrimidine-5-carboxamide]: the IC50 was under 200 nM. Consider `CC1(Nc2ncc(C(N)=O)c(N[C@@H]3CCC[C@H](O)C3)n2)CCC1` [Example 354, 4-((1R,3S)-3-hydroxycyclohexylamino)-2-(1-methylcyclobutylamino)pyrimidine-5-carboxamide], for which the IC50 was under 200 nM. Consider `NC(=O)c1cnc(N[C@H]2CC[C@H](O)CC2)nc1NC1(C2CC2)CC1` [Example 355, 4-(bi(cycloprop)ylamino)-2-((1r,4r)-4-hydroxycyclohexylamino)pyrimidine-5-carboxamide], for which the IC50 was under 200 nM. `CCC1(Nc2nc(N[C@H]3CC[C@H](O)CC3)ncc2C(N)=O)CC1` [Example 356, 4-(1-ethylcyclopropylamino)-2-((1r,4r)-4-hydroxycyclohexylamino)pyrimidine-5-carboxamide]: the IC50 is under 200 nM.
